Experimental data: PubChem BioAssay (NCI)
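Tested at 5 concentrations; 48 h exposure; 96-well plates; endpoints linearly interpolated, else capped at highest concentration. At the GI50, growth is halved. At the TGI there is no net growth.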

What was measured:
Assay in all cases: NCI anticancer screen, dose series, 48 h
[1] = test system: SNB-75 CNS
[2] = test system: MOLT-4 leukemia
[3] = test system: UACC-257 melanoma
[4] = test system: K-562 leukemia
[5] = test system: TK-10 renal
[6] = test system: ACHN renal
[7] = test system: NCI-H522 lung
[8] = test system: CCRF-CEM leukemia
[9] = test system: SK-MEL-5 melanoma
[10] = test system: SK-OV-3 ovarian
[11] = test system: UACC-62 melanoma
[12] = test system: NCI-H226 lung
[13] = test system: A498 renal
[14] = test system: M14 melanoma
[15] = test system: SK-MEL-28 melanoma
[16] = test system: UO-31 renal
[17] = test system: HT29 colon
[18] = test system: NCI/ADR-RES ovarian
[19] = test system: BT-549 breast
[20] = test system: HCC-2998 colon
[21] = test system: MDA-MB-435
[22] = test system: SN12C renal
[23] = test system: SF-539 CNS
[24] = test system: OVCAR-8 ovarian
[25] = test system: NCI-H23 lung
[26] = test system: HOP-62 NSCLC
[27] = test system: CAKI-1 renal
[28] = test system: RPMI-8226 leukemia
[29] = test system: MDA-MB-231 breast
[30] = test system: MALME-3M melanoma
[31] = test system: HOP-92 NSCLC
[32] = test system: SW-620 colon
[33] = test system: LOX IMVI melanoma
[34] = test system: T-47D breast
[35] = test system: MCF7 breast
[36] = test system: HCT-15 colon
[37] = test system: KM12 colon
[38] = test system: U251 CNS
[39] = test system: HS 578T breast
[40] = test system: SNB-19 CNS
[41] = test system: SF-295 CNS
[42] = test system: DU-145 prostate
[43] = test system: A549 NSCLC
[44] = test system: SF-268 CNS
[45] = test system: HL-60(TB) leukemia
[46] = test system: PC-3 prostate
[47] = test system: IGROV1 ovarian
[48] = test system: OVCAR-4 ovarian
[49] = test system: EKVX NSCLC
[50] = test system: OVCAR-3 ovarian
[51] = test system: HCT-116 colon
[52] = test system: SR leukemia
[53] = test system: 786-0 renal
[54] = test system: NCI-H460 lung
[55] = test system: COLO 205 colon
[56] = test system: SK-MEL-2 melanoma
[57] = test system: OVCAR-5 ovarian
[58] = test system: RXF 393 renal

SMILES: CCC(=O)c1c(C(F)(F)F)n([O-])c2ccccc2[n+]1=O
- GI50 [1]: 3.79 µM
- TGI [1]: 24.8 µM
- GI50 [2]: 0.577 µM
- TGI [2]: > 100 µM
- GI50 [3]: 10.8 µM
- TGI [3]: 35.3 µM
- GI50 [4]: 1.35 µM
- TGI [4]: 33.3 µM
- GI50 [5]: 2.81 µM
- TGI [5]: 14.5 µM
- GI50 [6]: 1.09 µM
- TGI [6]: 3.13 µM
- GI50 [7]: 2.36 µM
- TGI [7]: > 21.4 µM
- GI50 [8]: 0.621 µM
- TGI [8]: 10.5 µM
- GI50 [9]: 0.961 µM
- TGI [9]: 2.64 µM
- GI50 [10]: 3.05 µM
- TGI [10]: 14 µM
- GI50 [11]: 1.65 µM
- TGI [11]: 4.64 µM
- GI50 [12]: 2.09 µM
- TGI [12]: 9.06 µM
- GI50 [13]: 2.67 µM
- TGI [13]: 9.03 µM
- GI50 [14]: 1.7 µM
- TGI [14]: 6.19 µM
- GI50 [15]: 8.84 µM
- TGI [15]: 44.6 µM
- GI50 [16]: 0.829 µM
- TGI [16]: > 20.2 µM
- GI50 [17]: 1.41 µM
- TGI [17]: 11 µM
- GI50 [18]: 1.36 µM
- TGI [18]: 13.3 µM
- GI50 [19]: 2 µM
- TGI [19]: 6.13 µM
- GI50 [20]: 1.68 µM
- TGI [20]: 6.31 µM
- GI50 [21]: 2.41 µM
- TGI [21]: 10.4 µM
- GI50 [22]: 1.98 µM
- TGI [22]: 7.29 µM
- GI50 [23]: 2.81 µM
- TGI [23]: 10.2 µM
- GI50 [24]: 1.77 µM
- TGI [24]: > 32 µM
- GI50 [25]: 1.1 µM
- TGI [25]: 4.37 µM
- GI50 [26]: 0.7 µM
- TGI [26]: 3.54 µM
- GI50 [27]: 1.54 µM
- TGI [27]: 6.03 µM
- GI50 [28]: 0.694 µM
- TGI [28]: 3.69 µM
- GI50 [29]: 2.23 µM
- TGI [29]: 7.93 µM
- GI50 [30]: 1.69 µM
- TGI [30]: 6.16 µM
- GI50 [31]: 1.5 µM
- TGI [31]: 6.08 µM
- GI50 [32]: 2.65 µM
- TGI [32]: 17.4 µM
- GI50 [33]: 1.39 µM
- TGI [33]: 3.38 µM
- GI50 [34]: 2.27 µM
- TGI [34]: 31.1 µM
- GI50 [35]: 1.08 µM
- TGI [35]: 6.72 µM
- GI50 [36]: 1.09 µM
- TGI [36]: 4.88 µM
- GI50 [37]: 1.86 µM
- TGI [37]: 5.86 µM
- GI50 [38]: 2.16 µM
- TGI [38]: 13 µM
- GI50 [39]: 3.17 µM
- TGI [39]: 30.5 µM
- GI50 [40]: 5.07 µM
- TGI [40]: 32.6 µM
- GI50 [41]: 1.59 µM
- TGI [41]: 7.29 µM
- GI50 [42]: 1.59 µM
- TGI [42]: 3.27 µM
- GI50 [43]: 2.3 µM
- TGI [43]: 11.4 µM
- GI50 [44]: 1.22 µM
- TGI [44]: 6.34 µM
- GI50 [45]: 3.03 µM
- TGI [45]: > 100 µM
- GI50 [46]: 0.629 µM
- TGI [46]: 5.34 µM
- GI50 [47]: 1.38 µM
- TGI [47]: > 100 µM
- GI50 [48]: 5.65 µM
- TGI [48]: 31.2 µM
- GI50 [49]: 2 µM
- TGI [49]: 7.32 µM
- GI50 [50]: 1.74 µM
- TGI [50]: 6.35 µM
- GI50 [51]: 1.56 µM
- TGI [51]: 8.83 µM
- GI50 [52]: 0.193 µM
- TGI [52]: 10.3 µM
- GI50 [53]: 1.66 µM
- TGI [53]: 8.17 µM
- GI50 [54]: 0.695 µM
- TGI [54]: 2.6 µM
- GI50 [55]: 2.06 µM
- TGI [55]: 6.51 µM
- GI50 [56]: 14.9 µM
- TGI [56]: > 100 µM
- GI50 [57]: 3.89 µM
- TGI [57]: 13.1 µM
- GI50 [58]: 1.67 µM
- TGI [58]: 10.2 µM
